Measurements: the NIST ThermoML archive (doi:10.1021/je700205n)
Numbers after ± are expanded uncertainties.

Settings: Liquid

Q: What does the source list for `CCCCCCCn1cc[n+](C)c1.O=S(=O)([N-]S(=O)(=O)C(F)(F)F)C(F)(F)F`?
A: mass density (293.15 K, 100 kPa): 1352 ± 3 kg/m3; mass density (293.15 K, 1000 kPa): 1353 ± 3 kg/m3; mass density (293.15 K, 2000 kPa): 1354 ± 3 kg/m3; mass density (293.15 K, 3000 kPa): 1354 ± 4 kg/m3; mass density (293.15 K, 4000 kPa): 1355 ± 4 kg/m3; mass density (293.15 K, 5000 kPa): 1356 ± 4 kg/m3; mass density (293.15 K, 7500 kPa): 1358 ± 4 kg/m3; mass density (293.15 K, 10000 kPa): 1359 ± 4 kg/m3; mass density (293.15 K, 15000 kPa): 1363 ± 5 kg/m3; mass density (293.15 K, 20000 kPa): 1366 ± 5 kg/m3; mass density (293.15 K, 25000 kPa): 1370 ± 6 kg/m3; mass density (293.15 K, 30000 kPa): 1373 ± 6 kg/m3; mass density (303.15 K, 100 kPa): 1342 ± 3 kg/m3; mass density (303.15 K, 1000 kPa): 1343 ± 3 kg/m3; mass density (303.15 K, 2000 kPa): 1343 ± 3 kg/m3; mass density (303.15 K, 3000 kPa): 1344 ± 4 kg/m3; mass density (303.15 K, 4000 kPa): 1345 ± 4 kg/m3; mass density (303.15 K, 5000 kPa): 1346 ± 4 kg/m3; mass density (303.15 K, 7500 kPa): 1347 ± 4 kg/m3; mass density (303.15 K, 10000 kPa): 1349 ± 4 kg/m3; mass density (303.15 K, 15000 kPa): 1353 ± 5 kg/m3; mass density (303.15 K, 20000 kPa): 1357 ± 5 kg/m3; mass density (303.15 K, 25000 kPa): 1360 ± 6 kg/m3; mass density (303.15 K, 30000 kPa): 1364 ± 6 kg/m3; mass density (313.15 K, 100 kPa): 1332 ± 3 kg/m3; mass density (313.15 K, 1000 kPa): 1333 ± 3 kg/m3; mass density (313.15 K, 2000 kPa): 1333 ± 3 kg/m3; mass density (313.15 K, 3000 kPa): 1334 ± 3 kg/m3; mass density (313.15 K, 4000 kPa): 1335 ± 4 kg/m3; mass density (313.15 K, 5000 kPa): 1336 ± 4 kg/m3; mass density (313.15 K, 7500 kPa): 1338 ± 4 kg/m3; mass density (313.15 K, 10000 kPa): 1339 ± 4 kg/m3; mass density (313.15 K, 15000 kPa): 1343 ± 4 kg/m3; mass density (313.15 K, 20000 kPa): 1347 ± 5 kg/m3; mass density (313.15 K, 25000 kPa): 1351 ± 6 kg/m3; mass density (313.15 K, 30000 kPa): 1355 ± 6 kg/m3; mass density (323.15 K, 100 kPa): 1322 ± 3 kg/m3; mass density (323.15 K, 1000 kPa): 1323 ± 3 kg/m3; mass density (323.15 K, 2000 kPa): 1324 ± 3 kg/m3; mass density (323.15 K, 3000 kPa): 1325 ± 3 kg/m3; mass density (323.15 K, 4000 kPa): 1325 ± 3 kg/m3; mass density (323.15 K, 5000 kPa): 1326 ± 4 kg/m3; mass density (323.15 K, 7500 kPa): 1328 ± 4 kg/m3; mass density (323.15 K, 10000 kPa): 1330 ± 4 kg/m3; mass density (323.15 K, 15000 kPa): 1334 ± 4 kg/m3; mass density (323.15 K, 20000 kPa): 1338 ± 5 kg/m3; mass density (323.15 K, 25000 kPa): 1342 ± 5 kg/m3; mass density (323.15 K, 30000 kPa): 1345 ± 6 kg/m3; mass density (333.15 K, 100 kPa): 1313 ± 3 kg/m3; mass density (333.15 K, 1000 kPa): 1314 ± 3 kg/m3; mass density (333.15 K, 2000 kPa): 1315 ± 3 kg/m3; mass density (333.15 K, 3000 kPa): 1316 ± 3 kg/m3; mass density (333.15 K, 4000 kPa): 1317 ± 3 kg/m3; mass density (333.15 K, 5000 kPa): 1317 ± 4 kg/m3; mass density (333.15 K, 7500 kPa): 1319 ± 4 kg/m3; mass density (333.15 K, 10000 kPa): 1321 ± 4 kg/m3; mass density (333.15 K, 15000 kPa): 1325 ± 4 kg/m3; mass density (333.15 K, 20000 kPa): 1329 ± 5 kg/m3; mass density (333.15 K, 25000 kPa): 1333 ± 5 kg/m3; mass density (333.15 K, 30000 kPa): 1337 ± 6 kg/m3; mass density (343.15 K, 100 kPa): 1304 ± 3 kg/m3; mass density (343.15 K, 1000 kPa): 1304 ± 3 kg/m3; mass density (343.15 K, 2000 kPa): 1305 ± 3 kg/m3; mass density (343.15 K, 3000 kPa): 1306 ± 3 kg/m3; mass density (343.15 K, 4000 kPa): 1307 ± 3 kg/m3; mass density (343.15 K, 5000 kPa): 1308 ± 3 kg/m3; mass density (343.15 K, 7500 kPa): 1310 ± 4 kg/m3; mass density (343.15 K, 10000 kPa): 1312 ± 4 kg/m3; mass density (343.15 K, 15000 kPa): 1316 ± 4 kg/m3; mass density (343.15 K, 20000 kPa): 1320 ± 5 kg/m3; mass density (343.15 K, 25000 kPa): 1324 ± 5 kg/m3; mass density (343.15 K, 30000 kPa): 1328 ± 6 kg/m3; mass density (353.15 K, 100 kPa): 1295 ± 3 kg/m3; mass density (353.15 K, 1000 kPa): 1296 ± 3 kg/m3; mass density (353.15 K, 2000 kPa): 1296 ± 3 kg/m3; mass density (353.15 K, 3000 kPa): 1297 ± 3 kg/m3; mass density (353.15 K, 4000 kPa): 1298 ± 3 kg/m3; mass density (353.15 K, 5000 kPa): 1299 ± 3 kg/m3; mass density (353.15 K, 7500 kPa): 1301 ± 4 kg/m3; mass density (353.15 K, 10000 kPa): 1303 ± 4 kg/m3; mass density (353.15 K, 15000 kPa): 1308 ± 4 kg/m3; mass density (353.15 K, 20000 kPa): 1312 ± 5 kg/m3; mass density (353.15 K, 25000 kPa): 1316 ± 5 kg/m3; mass density (353.15 K, 30000 kPa): 1320 ± 6 kg/m3; mass density (393.15 K, 100 kPa): 1261 ± 3 kg/m3; mass density (393.15 K, 1000 kPa): 1262 ± 3 kg/m3; mass density (393.15 K, 2000 kPa): 1263 ± 3 kg/m3; mass density (393.15 K, 3000 kPa): 1264 ± 3 kg/m3; mass density (393.15 K, 4000 kPa): 1265 ± 3 kg/m3; mass density (393.15 K, 5000 kPa): 1266 ± 3 kg/m3; mass density (393.15 K, 7500 kPa): 1268 ± 3 kg/m3; mass density (393.15 K, 10000 kPa): 1271 ± 4 kg/m3; mass density (393.15 K, 15000 kPa): 1276 ± 4 kg/m3; mass density (393.15 K, 20000 kPa): 1281 ± 4 kg/m3; mass density (393.15 K, 25000 kPa): 1285 ± 5 kg/m3; mass density (393.15 K, 30000 kPa): 1290 ± 5 kg/m3
